The source made the active and inactive calls. No cut-off for these calls is given here.
Legend:
[1] = system: Staphylococcus aureus
Description: Bactericidal activity against Staphylococcus aureus assessed number of surviving colonies after 24 hrs

[2] = system: Staphylococcus aureus; remark: listed apart in the source
[3] = system: Pseudomonas aeruginosa
Description: (§1) Antibacterial activity against Pseudomonas aeruginosa assessed as growth inhibition after 24 hrs by turbidimetric method

[4] = system: Pseudomonas aeruginosa; remark: listed apart in the source
[5] = system: Pseudomonas aeruginosa; assay: Antibacterial activity against Pseudomonas aeruginosa assessed as growth inhibition after 24 hrs in presence of carbonate by turbidimetric method; assay type: functional
[6] = system: Staphylococcus aureus; assay: Bactericidal activity against Staphylococcus aureus […] assessed number of surviving colonies after 24 hrs in presence of carbonate; assay type: functional, organism-based
[7] = system: Pseudomonas aeruginosa; assay: Antibacterial activity against Pseudomonas aeruginosa assessed as growth inhibition after 24 hrs in presence of urea by turbidimetric method; assay type: functional
[8] = system: Staphylococcus aureus; assay: Bactericidal activity against Staphylococcus aureus […] assessed number of surviving colonies after 24 hrs in presence of urea; assay type: functional, organism-based
[9] = system: Pseudomonas aeruginosa; assay: Bactericidal activity against Pseudomonas aeruginosa assessed number of surviving colonies after 24 hrs; assay type: functional; details: read-out: MBC99.9
[10] = system: Pseudomonas aeruginosa; assay: Bactericidal activity against Pseudomonas aeruginosa assessed number of surviving colonies after 24 hrs in presence of carbonate; assay type: functional; details: read-out: MBC99.9
[11] = system: Pseudomonas aeruginosa; assay: Antibacterial activity against Pseudomonas aeruginosa using 24 hrs aged compound solutions by cup diffusion method; assay type: functional, organism-based
[12] = system: Staphylococcus aureus; assay: Antibacterial activity against Staphylococcus aureus assessed as growth inhibition after 24 hrs in presence of urea by turbidimetric method; assay type: functional
[13] = system: Staphylococcus aureus; assay: Antibacterial activity against Staphylococcus aureus assessed as growth inhibition after 24 hrs by turbidimetric method; assay type: functional
[14] = system: Staphylococcus aureus; assay: Antibacterial activity against Staphylococcus aureus assessed as growth inhibition after 24 hrs in presence of carbonate by turbidimetric method; assay type: functional
[15] = system: Pseudomonas aeruginosa; assay: Bactericidal activity against Pseudomonas aeruginosa assessed number of surviving colonies after 24 hrs in presence of urea; assay type: functional; details: read-out: MBC99.9
[16] = system: Pseudomonas aeruginosa; assay: microbe, parasite or virus in culture; assay type: functional; details: 24 h
Description: as §1

[17] = system: Staphylococcus aureus; assay: Antibacterial activity against Staphylococcus aureus at <125 ug/ml by cup diffusion method; assay type: functional, organism-based
[18] = system: Pseudomonas aeruginosa; assay: Antibacterial activity against Pseudomonas aeruginosa at 7.8 ug/ml by cup diffusion method; assay type: functional, organism-based
[19] = system: Staphylococcus aureus; assay: Antibacterial activity against Staphylococcus aureus at 250 ug/ml by cup diffusion method; assay type: functional, organism-based
[20] = system: Pseudomonas aeruginosa; assay: Potency index, ratio of MIC for Pseudomonas aeruginosa to MIC for Pseudomonas aeruginosa assessed as growth inhibition in presence of urea; assay type: functional
[21] = system: Staphylococcus aureus; assay: Potency index, ratio of MIC for Staphylococcus aureus to MIC for Staphylococcus aureus assessed as growth inhibition in presence of urea; assay type: functional
[22] = system: Pseudomonas aeruginosa; assay: Antibacterial activity against Pseudomonas aeruginosa at 125 ug/ml by cup diffusion method; assay type: functional, organism-based

O=S(=O)(O)SS(=O)(=O)O
MBC99.9 [1]: inactive
MIC [2]: inactive
MIC [3]: inactive
MBC99.9 [4]: inactive

NC(N)=O
MBC99.9 [1]: inactive
MIC [2]: inactive
MIC [3]: inactive
MBC99.9 [4]: inactive

O=S(=O)(O)SSS(=O)(=O)O
MBC99.9 [1]: inactive
MIC [2]: inactive
MIC [3]: inactive
MBC99.9 [4]: inactive

O=S(O)(O)=S
MBC99.9 [1]: inactive
MIC [2]: inactive
MIC [3]: inactive
MBC99.9 [4]: inactive

O=S(=O)(O)O
MBC99.9 [1]: inactive
MIC [2]: inactive
MIC [3]: inactive
MBC99.9 [4]: inactive

O=S(=O)([O-])SSSS(=O)(=O)[O-].[K+].[K+]
MIC [5]: 3.91 µg/mL
MBC99.9 [1]: inactive
MBC99.9 [6]: inactive
MIC [7]: 15.6 µg/mL
MBC99.9 [8]: inactive
MBC [9]: 500 µg/mL
MBC [10]: 1000 µg/mL
Activity [11]: Active
MIC [12]: inactive
MIC [13]: 62.5 µg/mL
MIC [14]: 125 µg/mL
MBC [15]: 1000 µg/mL
MIC [16]: 1.95 µg/mL

O=S(=O)([O-])SSSSS(=O)(=O)[O-].[K+].[K+]
Activity [17]: inactive
MIC [5]: 1.95 µg/mL
MBC99.9 [1]: inactive
MBC99.9 [6]: inactive
MIC [7]: 1.95 µg/mL
Activity [18]: Active
MBC99.9 [8]: inactive
MBC [9]: 1000 µg/mL
MBC [10]: 500 µg/mL
Activity [11]: Active
MIC [12]: 62.5 µg/mL
MIC [13]: 7.81 µg/mL
MIC [14]: 15.6 µg/mL
Activity [19]: Active
MBC [15]: 500 µg/mL
Ratio [20]: 4
Ratio [21]: 4
MIC [16]: 0.98 µg/mL
Activity [22]: Active

— ChEMBL document CHEMBL3751744, “Antibacterial activities of polythionates enhanced by carbonates” (2015)
